Results taken from US8785457B2 (Cellzome Limited, priority 2009, dated 2014).
Read-outs that look alike come from different tables or passages of the source.

How the values were obtained:
mTOR = target: T1, mTOR (Homo sapiens, UniProt P42345); experiment: mTOR kinobeads assay (competitive binding in Jurkat cell lysate, immunodetection)
T1 construct: endogenous in cells; host or cells: Jurkat, clone E6-1 (ATCC TIB-152) cell lysate
Procedure, shortened: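 IC50 derived from dose-response curves of mTOR captured on immobilized phenylmorpholin-chromen beads, detected by antibody dot blot with infrared fluorescence.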

PI3 Kgamma (PI3 Kg) = target: T2, PI3 Kgamma (PI3 Kg) (Homo sapiens, UniProt P48736); experiment: kinobeads assay, PI3Kgamma; format: binding
T2 construct: endogenous in cells; host or cells: cell lysate
T2 sequence (P48736 whole entry): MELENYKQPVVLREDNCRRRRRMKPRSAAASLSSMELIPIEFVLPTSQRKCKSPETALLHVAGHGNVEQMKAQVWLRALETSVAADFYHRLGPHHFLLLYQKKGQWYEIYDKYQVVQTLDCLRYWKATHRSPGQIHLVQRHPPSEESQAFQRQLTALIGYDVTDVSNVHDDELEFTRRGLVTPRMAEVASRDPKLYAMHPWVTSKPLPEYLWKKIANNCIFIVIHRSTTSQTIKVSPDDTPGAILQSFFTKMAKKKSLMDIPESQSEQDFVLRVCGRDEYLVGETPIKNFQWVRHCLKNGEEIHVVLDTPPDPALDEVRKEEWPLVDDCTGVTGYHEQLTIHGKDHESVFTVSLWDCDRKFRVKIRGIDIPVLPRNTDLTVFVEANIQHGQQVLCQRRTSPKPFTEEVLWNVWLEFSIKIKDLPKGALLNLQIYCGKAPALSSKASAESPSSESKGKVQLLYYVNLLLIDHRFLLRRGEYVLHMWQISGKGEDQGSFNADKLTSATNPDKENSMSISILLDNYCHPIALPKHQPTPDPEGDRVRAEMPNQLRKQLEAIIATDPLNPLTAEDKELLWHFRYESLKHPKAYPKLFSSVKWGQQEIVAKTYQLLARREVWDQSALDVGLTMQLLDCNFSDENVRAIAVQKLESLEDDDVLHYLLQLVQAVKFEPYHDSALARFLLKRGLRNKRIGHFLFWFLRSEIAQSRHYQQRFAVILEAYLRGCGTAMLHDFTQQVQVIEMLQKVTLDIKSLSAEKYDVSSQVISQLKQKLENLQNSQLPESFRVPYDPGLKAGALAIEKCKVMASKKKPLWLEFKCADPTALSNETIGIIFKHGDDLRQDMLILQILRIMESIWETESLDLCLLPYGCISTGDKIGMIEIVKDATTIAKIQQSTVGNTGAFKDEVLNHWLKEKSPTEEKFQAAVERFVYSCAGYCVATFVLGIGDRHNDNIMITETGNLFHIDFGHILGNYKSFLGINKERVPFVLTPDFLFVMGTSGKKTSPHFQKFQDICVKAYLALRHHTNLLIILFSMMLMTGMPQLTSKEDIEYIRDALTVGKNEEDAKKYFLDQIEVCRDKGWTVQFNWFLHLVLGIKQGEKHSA
Procedure, shortened: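 In this bead competition format, compound and immobilized phenylmorpholin-chromen ligand compete for kinases in cell lysate. Eluted captured kinases were measured by multiplexed immunodetection, and IC50 was calculated.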

[1] = tested on: S6RP serine-240/244 phosphorylation; experiment: In vitro Phospho-S6 cellular assay (pS6RP S240/244) in HEK293T/17 cells; format: cell-based; details: Homo sapiens, 2 hours, read-out: pS6 IC50
Procedure, shortened: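 Compounds were tested at eight concentrations on adhered HEK293T/17 cells for 2 h at 37 °C (2% FCS, 0.1% DMSO), at 80,000 cells/well for pAkt S473 and 40,000 for pS6RP S240/244. Lysates were captured on phospho-specific antibody MSD plates with Sulfo-Tag detection. Values came from nonlinear variable-slope regression.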

[2] = Further Kinobeads Data, read-out: mTor
[3] = Further Kinobeads Data, read-out: PI3Kg
[4] = kinobeads assay, Table 4, read-out: Inhibition values (IC50) mTor
[5] = kinobeads assay, Table 6, read-out: Inhibition values (IC50) mTOR
[6] = kinobeads assay, Table 6, read-out: Inhibition values (IC50) PI3Kg

**Q.** Which results are given for `CN1Cc2nc(-c3ccc(NC(=O)NC4CC4)cc3F)nc(N3CCOCC3)c2C1` [Example 159, 1-(Cyclopropyl)-3-(3-fluoro-4-(6-methyl-4-morpholino-6,7-dihydro-5H-pyrrolo[3,4-d]pyrimidin-2-yl)phenyl)urea]?
**A.** IC50 (mTOR; [2]): 0.1 to 1 µM; IC50 (PI3 Kgamma (PI3 Kg); [3]): > 10 µM; IC50 [1]: 0.271 µM

**Q.** `CCNC(=O)Nc1ccc(-c2nc3c(c(N4CCOC[C@@H]4C)n2)CN(C(=O)c2ccc(F)cc2)C3)cc1` [Example 19, (S)-1-ethyl-3-(4-(6-(4-fluorobenzoyl)-4-(3-methylmorpholino)-6,7-dihydro-5H-pyrrolo[3,4-d]pyrimidin-2-yl)phenyl)urea] was tested. Which IC50 (mTOR; [4]) did it give?
**A.** Its IC50 is 0.1 to 1 µM.

**Q.** What about the IC50 (mTOR; [5]) of the same compound?
**A.** Its IC50 is 0.1 to 1 µM.

**Q.** What about the IC50 (PI3 Kgamma (PI3 Kg); [6]) of the same compound?
**A.** The IC50 was > 10 µM.

**Q.** And the IC50 [1]?
**A.** Its IC50 is 0.135 µM.

**Q.** With `C[C@@H]1COCCN1c1nc(-c2ccc(NC(=O)NC3CC3)cc2F)nc2c1CN(S(C)(=O)=O)C2` [Example 191, (R)-1-cyclopropyl-3-(3-fluoro-4-(4-(3-methylmorpholino)-6-(methylsulfonyl)-6,7-dihydro-5H-pyrrolo[3,4-d]pyrimidin-2-yl)phenyl)urea] as the compound, how does the IC50 (mTOR; [2]) read?
**A.** Its IC50 is 0.1 to 1 µM.

**Q.** What about the IC50 (PI3 Kgamma (PI3 Kg); [3]) of the same compound?
**A.** The IC50 was > 10 µM.

**Q.** What about the IC50 [1] of the same compound?
**A.** Its IC50 is 0.18 µM.

**Q.** For `COC(=O)N1Cc2nc(-c3ccc(NC(=O)NC4CC4)cc3F)nc(N3CCOCC3)c2C1` [Example 173, Methyl 2-(4-(3-cyclopropylureido)-2-fluorophenyl)-4-morpholino-5H-pyrrolo[3,4-d]pyrimidine-6(7H)-carboxylate], which IC50 (mTOR; [2]) is on record?
**A.** Its IC50 is < 0.1 µM.

**Q.** And the IC50 (PI3 Kgamma (PI3 Kg); [3])?
**A.** The IC50 was > 10 µM.

**Q.** And the IC50 [1]?
**A.** The IC50 was 0.172 µM.

**Q.** For `CCNC(=O)Nc1ccc(-c2nc3c(c(N4CCOCC4)n2)CN(C(=O)OCC)C3)c(F)c1` [Example 151, Ethyl 2-(4-(3-ethylureido)-2-fluorophenyl)-4-morpholino-5H-pyrrolo[3,4-d]pyrimidine-6(7H)-carboxylate], which IC50 (mTOR; [2]) is on record?
**A.** Its IC50 is 0.1 to 1 µM.

**Q.** And the IC50 (PI3 Kgamma (PI3 Kg); [3])?
**A.** The IC50 was 1 to 10 µM.

**Q.** And the IC50 [1]?
**A.** Its IC50 is 0.153 µM.

**Q.** Which results are given for `CCOC(=O)N1Cc2nc(-c3ccc(NC(=O)NCCF)cc3F)nc(N3CCOCC3)c2C1` [Example 170, ethyl 2-(2-fluoro-4-(3-(2-fluoroethyl)ureido)phenyl)-4-morpholino-5H-pyrrolo[3,4-d]pyrimidine-6(7H)-carboxylate]?
**A.** IC50 (mTOR; [2]): < 0.1 µM; IC50 (PI3 Kgamma (PI3 Kg); [3]): > 10 µM; IC50 [1]: 0.105 µM

**Q.** With `C[C@H]1COCCN1c1nc(-c2ccc(NC(=O)NC3CC3)cc2)nc2c1CN(CC(C)(C)C)C2` [Example 25, (S)-1-cyclopropyl-3-(4-(4-(3-methylmorpholino)-6-neopentyl-6,7-dihydro-5H-pyrrolo[3,4-d]pyrimidin-2-yl)phenyl)urea] as the compound, how does the IC50 (mTOR; [4]) read?
**A.** Its IC50 is 0.1 to 1 µM.

**Q.** And the IC50 (mTOR; [5])?
**A.** The IC50 was 0.1 to 1 µM.

**Q.** And the IC50 (PI3 Kgamma (PI3 Kg); [6])?
**A.** The IC50 was > 10 µM.

**Q.** What about the IC50 [1] of the same compound?
**A.** The IC50 was 0.098 µM.

**Q.** Which results are given for `CC(C)CN1CCc2c(nc(-c3ccc(NC(=O)NC4CC4)cc3)nc2N2CCOC[C@@H]2C)C1` [Example 42, (S)-1-cyclopropyl-3-(4-(7-isobutyl-4-(3-methylmorpholino)-5,6,7,8-tetrahydropyrido[3,4-d]pyrimidin-2-yl)phenyl)urea]?
**A.** IC50 (mTOR; [4]): < 0.1 µM; IC50 (mTOR; [5]): < 0.1 µM; IC50 (PI3 Kgamma (PI3 Kg); [6]): > 10 µM; IC50 [1]: 0.104 µM

**Q.** With `C[C@H]1COCCN1c1nc(-c2ccc(NC(=O)NC3CC3)cc2F)nc2c1CN(C)C2` [Example 147, (S)-1-cyclopropyl-3-(3-fluoro-4-(6-methyl-4-(3-methylmorpholino)-6,7-dihydro-5H-pyrrolo[3,4-d]pyrimidin-2-yl)phenyl)urea] as the compound, how does the IC50 (mTOR; [2]) read?
**A.** The IC50 was < 0.1 µM.

**Q.** And the IC50 (PI3 Kgamma (PI3 Kg); [3])?
**A.** Its IC50 is > 10 µM.

**Q.** And the IC50 [1]?
**A.** The IC50 was 0.282 µM.

**Q.** Which results are given for `CC(C)N1CCc2c(nc(-c3ccc(NC(=O)NC4CC4)cc3)nc2N2CCOC[C@@H]2C)C1` [Example 43, (S)-1-cyclopropyl-3-(4-(7-isopropyl-4-(3-methylmorpholino)-5,6,7,8-tetrahydropyrido[3,4-d]pyrimidin-2-yl)phenyl)urea]?
**A.** IC50 (mTOR; [4]): < 0.1 µM; IC50 (mTOR; [5]): < 0.1 µM; IC50 (PI3 Kgamma (PI3 Kg); [6]): 1 to 10 µM; IC50 [1]: 0.071 µM

**Q.** How did the IC50 (mTOR; [2]) turn out when `C[C@H]1COCCN1c1nc(-c2ccc(NC(=O)NC3CC3)cc2F)nc2c1CN(C(=O)N(C)C)C2` [Example 178, (S)-2-(4-(3-cyclopropylureido)-2-fluorophenyl)-N,N-dimethyl-4-(3-methylmorpholino)-5H-pyrrolo[3,4-d]pyrimidine-6(7H)-carboxamide] was run?
**A.** Its IC50 is 0.1 to 1 µM.

**Q.** What about the IC50 (PI3 Kgamma (PI3 Kg); [3]) of the same compound?
**A.** Its IC50 is > 10 µM.

**Q.** And the IC50 [1]?
**A.** The IC50 was 0.163 µM.
